In patent publication US20090270373A1, “TREATMENT OF DOWN SYNDROM WITH BENZODIAZEPINE RECEPTOR ANTAGONISTS” (Cypress Biosciences, Inc., priority 2008, published 2009):

Tests used:
[1] = tested on: Ts65Dn mice; settings: cited from earlier work; for improvement in cognition: 4 week crossover study
[2] = tested on: Ts65Dn mice; assay type: in vivo, mouse; settings: 4-week crossover, flumazenil or bretazenil 1.0 mg/kg i.p. for 2 weeks, bilobalide 5.0 mg/kg i.p. throughout
Method: (§1) A 4-week longitudinal crossover study is carried out following the method outlined by Fernandez et al., supra. Wild-type and Ts65Dn mice (3-4 months of age) are randomly assigned to groups receiving daily i.p. injections of saline or flumazenil (1.0 mg/kg), and are submitted to four weekly repetitions of object recognition testing, in which the animals are serially presented with four different object sets. At the 2-week midpoint of the experimental period, wild-type and Ts65Dn mice that have been receiving saline are randomly segregated into groups that either continue to receive daily saline injections or begin to receive daily injections of flumazenil. Conversely, wild-type and Ts65Dn mice that have been chronically administered flumazenil in the first 2 weeks of testing are switched onto a saline regimen. Alongside saline and flumazenil, bilobalide (i.p. 5.0 mg/kg) may be evaluated as a positive control. Bilobalide is a picrotoxin-like compound that may safely be administered for the whole 4-week experiment.
(§2) Flumazenil may also be tested for its effects on declarative memory in the novel object recognition test and in a modified spontaneous alternation task. Wild-type and Ts65Dn mice may be administered flumazenil (3 mg/kg in milk via voluntary oral feeding or 1 mg/kg i.p.). The wild-type and Ts65Dn mice are administered from 5 to 30 doses of milk or milk-flumazenil (or saline or flumazenil solution i.p.). The mice are then subjected to two repetitions of novel object recognition testing or three daily T-maze sessions at the tail end of the treatment regimen. […] Comparison of treated and untreated Ts65Dn mice will provide controls for any possible arm bias in the spontaneous alternation task.
as §1, with “bretazenil” for “flumazenil”, “bretazenil.” for “flumazenil.”, “bretazenil,” for “flumazenil,”
as §2, with “Bretazenil may” for “Flumazenil may”, “administered bretazenil” for “administered flumazenil”

[3] = tested on: Down Syndrome patients; experiment: Cognition in Down Syndrome patients, double-blind cross-over (Example 3); assay type: in vivo, human; settings: 5 and 20 mg
Method: Fifteen adult or adolescent Down Syndrome patients experiencing at least some level of cognitive impairment participate in a double-blind, cross-over comparison of […]. The drugs administered are flumazenil (5 and 20 mg), bretazenil (5 and 20 mg) or placebo. Subjects are randomly assigned to treatments according to a Williams Square design (Higgitt, supra (citing Williams, “Experimental designs balanced for the estimation of residual effects of treatments, Aust. J. Sci. Res. 2:149-168 (1949))). Each subject receives a different sequence of four treatments balanced for carry-over effects and separated by at least 1 week of wash-out period. […]
Psychophysiological indices to be measured include: EEG, skin conductance, finger tremor, critical flicker fusion threshold, blood pressure and pulse rate, key tapping rate, and reaction time. […]
EEG and evoked responses: These are recorded during the same EEG recording procedure. […] In addition, the four values are summed and each is expressed as a percentage of the total.
The averaged evoked responses are obtained from the 500 ms epoch of the EEG following each of the 32 click stimuli. […] The latency at each peak and peak-to-peak amplitudes are computed and recorded automatically. […]
Skin conductance, blood pressure and pulse rate can be measured by the method of Higgitt et al., supra. […]

[4] = tested on: Ts65Dn mice; experiment: Long-term potentiation (LTP) in the dentate gyrus of Ts65Dn mice (paper Examples 1 and 2); assay type: in vivo, mouse; settings: about 1 month after cessation of drug treatment
Description: Since the ability of animals to learn and remember is thought to be encoded at the synaptic level, and involves the ability of synapses to undergo long-term changes in synapse strength, long-term potentiation (LTP) in the dentate gyrus may be evaluated.

[5] = tested on: WT mice; experiment: Novel object recognition assay (Discrimination Index) in WT mice; assay type: in vivo, mouse
Method: (§3) Following baseline determinations and group assignments, WT and Ts65Dn mice received intraperitoneal (i.p.) injections once/day (08:00) for the two-week duration of the drug treatment regimen (FIG. 1). Drugs were dissolved in physiological saline. Two drops of Tween 80 were used to facilitate solution formation for flumazenil. Picrotoxin was initially made up at 50× concentration in 20% ethanol and then diluted down to a […] solution with 0.4% ETOH in saline. Doses of drugs were based on previous behavioral research in mice (1 mg/kg for PTX and 10 mg/kg for flumazenil). Injections were given in a volume of 10 ml/kg. A vehicle control was run along side the treatment groups (0.4% ETOH in saline).
(§4) FIG. 1 graphically depicts the protocol. After habituation to the animal facility, mice were tested for baseline behaviors in the open-field locomotor assay (LMA)(30 min session) and the novel object recognition assay. Primary experimental groups were divided by genotype (Ts65Dn mice and wild-type control littermates). These two groups were further divided into drug treatments (vehicle, PTX and flumazenil) with a targeted n-size of 8 mice/group (24 WT and 24 Ts65Dn mice total). The group assignments were made in a semi-random process due to constraints in animal availability (staggered shipping) and choice of initial treatment groups (e-mail documentation between Bilsky laboratory and Cypress Bioscience on file). Daily morning injections began on Day 1 and went through the morning of Day 14. On Days 7/8 and 14/15 (13:00) mice were tested in the behavioral assay. Mice were kept for an additional two weeks and re-tested on Days 21/22 and 28/29 to assess the duration of the drug treatment effect.
(§5) The novel object recognition task is based on the innate tendency of rodents to differentially explore novel objects over familiar ones. The task is well validated for evaluating rodent memory and the effects of drug treatments on learning/memory performance.
(§6) Mice were trained and tested once per week, each experimental session separated by a one-week interval. Mice were submitted to daily handling sessions, and given an opportunity to habituate to an open field arena (48 cm×48 cm wide×25 cm), where they were exposed to two different objects (complex protocol), during a 5-minute training session. Objects were made from various non-porous materials that differ in shape and color. Mice were unable to climb onto the objects and the objects were generally consistent in height and volume, and were roughly symmetrical on a horizontal plane. Objects were positioned in two corners of the apparatus. To control for odor cues, the open field arena and the objects are thoroughly cleaned with 90% ethanol, dried, and ventilated for a few minutes between mice.
(§7) A 5-minute testing session was conducted 24 h after training. Here, the mice were presented with the object they had explored the previous day, and a new item (the objects being alternatively positioned in one corner or another in a balanced fashion within a given week, and from one week to another). […]

[6] = tested on: Ts65Dn mice; experiment: Novel object recognition assay (Discrimination Index) in Ts65Dn mice, model of Down syndrome; assay type: in vivo, mouse
Method: as §3, §4, §5, §6, §7

[7] = tested on: WT and Ts65Dn mice; experiment: Open-field locomotor assay (LMA), 30 min session; assay type: in vivo, mouse
Method: as §3, §4
General levels of arousal, locomotor activity and anxiety were assessed using an automated open-field activity monitoring system (Coulbourn Instruments with TruScan software). The open field test that were run were fully automated assays that quantified many different aspects and patterns of movement, including total distance traveled, time spent moving, rearing, and various stereotypic patterns of activity. The software calculates the time spent in the middle portions of the open field versus the outer zones alongside the outside walls. These variables can be used as one measure of general anxiety levels.
Mice were placed into an open field (26 cm×26 cm) in a brightly lit room. Two sensor rings (x-y plane and a vertical z plane) generate an array of infrared beams that surround the chamber. The pattern of beam breaks was recorded and the data fed into a personal computer. The TruScan software interpreted the beam breaks to calculate the movement variables and patterns of activity, with a temporal resolution of 100 msec. A 30 minutes session was used for assessment of the mice on Day 0 (Baseline) and then on Days 1, 7, 14, 21 and 28. Data were exported into an Excel spreadsheet, graphed and analyzed using parametric and non-parametric statistics.

[8] = Week 1 of drug therapy, PTX 1 mg/kg, flumazenil 10 mg/kg i.p.

CC(C)(C)[C@]1(O)CC2OC(=O)CC23C(=O)OC2OC(=O)[C@H](O)C231 (stereo partly shown) [bilobalide]
improvement in cognition [1]: statistically significant improvement
object recognition performance [2]: normalized object recognition performance

CC(C)(C)OC(=O)c1ncn2c1[C@@H]1CCCN1C(=O)c1c(Br)cccc1-2 [bretazenil, tert-butyl-(S)-8-bromo-11,12,13,13a-tetrahydro-9-oxo-9H-imidazo[1,5-a]pyrrolo[2,1-c][1,4]benzodiazepine-1-carboxylate]
indicators of cognition as compared to placebo [3]: improvement in one or more indicators of cognition
object recognition performance [2]: normalized object recognition performance
LTP in the dentate gyrus [4]: Normalized LTP

picrotoxin [PTX]
Discrimination Index (DI) [5, 8]: ~30
Discrimination Index (DI) ([5]; Week 2 of drug therapy, versus vehicle): no differences
Discrimination Index (DI) ([5]; Week 4 (2 weeks post dosing)): positive DI
improvement in cognition [1]: statistically significant improvement
rescue of cognition ([1]; Ts65Dn mice, two-week dosing regimen of 1.0 mg/kg i.p.): clear benefit
Discrimination Index (DI) [6, 8]: positive effects
Discrimination Index (DI) ([6]; Week 2 of drug therapy): positive effects
LMA center distance traveled ([7]; 7 and 14 days post dosing): mild rebound effect
LMA margin vs. center time ([7]; Day 1): trend for decreased center time
LMA margin vs. center time ([7]; Day 7): small decrease in time spent in the center zone
LMA margin vs. center time ([7]; Day 21 (washout period)): increased time spent in center
LMA margin vs. center time ([7]; Day 28 (washout period)): trend for increased time spent in the center zone
LMA vertical rearing ([7]; WT and Ts65Dn mice, PTX during drug administration phases, flumazenil over the 4 week testing regimen): dropping significantly
LMA marginal distance traveled ([7]; WT and Ts65Dn mice, across sessions, PTX 1 mg/kg, flumazenil 10 mg/kg i.p.): decreased distance traveled
LMA total distance traveled ([7]; dosing phase (Days 1, 7 and 14), PTX 1 mg/kg i.p.): modest decrease
LMA center distance traveled ([7]; drug administration phase (Days 1, 7 and 14), PTX 1 mg/kg, flumazenil 10 mg/kg i.p.): decreased levels of activity
time after last dosing until LMA effects were gone ([7]; total distance traveled, PTX 1 mg/kg i.p.): ≤ 7 days
